Experimental data: patent US20140249172A1 (3B Pharmaceuticals, Inc., priority 2012, published 2014)
Where “and” joins values, the source holds several entries; their conditions need not be identical. Identical values can stand only once. Counter-ions that a name gives are not always drawn.

Key:
[1] = cited from earlier work
[2] = Stability of Naltrexone HCl aqueous solution: potency/purity by USP <621> HPLC
[3] = Blood levels of free naltrexone and free 6-beta-naltrexol following intranasal administration; assay type: in vivo, human; details: for Blood Level 6-beta-Naltrexol-free / Naltrexone-free blood level: individual patients 1-8
[4] = 0.5 mg/day oral daily for 4 weeks; 42 IBS patients; cited from earlier work
[5] = in vivo, po; cited from earlier work
[6] = 4.5 mg/day for 12 weeks; cited from earlier work
[7] = oral, 0.4 mg or 1.0 mg; 90 patients; cited from earlier work
[8] = oral 0.002 mg/day with methadone; one patient; cited from earlier work
[9] = cited from earlier work; remark: listed apart in the source

In the case of `O=C1CC[C@@]2(O)[C@H]3Cc4ccc(O)c5c4[C@@]2(CCN3CC2CC2)[C@H]1O5` [Naltrexone HCl, Naltrexone hydrochloride], the solubility in water [1] is given as “about 100 mg/mL”, the Potency/Purity ([2]; Stability Test A, 2.00 mg/mL in sterile water, room temperature, ambient light, day 5) is given as 99.89% and the Potency/Purity ([2]; Stability Test A, day 14) is given as 104.12%. The Potency/Purity ([2]; Stability Test A, day 31) was 95.94%, the Potency/Purity ([2]; Stability Test A, day 62) was 107.00% and the Potency/Purity ([2]; Stability Test A, day 90) was 107.09%. For the same molecule, the Potency/Purity ([2]; Stability Test B, 2.00 mg/mL in sterile water, room temperature, ambient light, day 6) was 102.04%, the Potency/Purity ([2]; Stability Test B, day 15) was 102.11% and the Potency/Purity ([2]; Stability Test B, day 33) was 101.05%. For the same molecule, the Potency/Purity ([2]; Stability Test B, day 61) was 98.49%, the Potency/Purity ([2]; Stability Test B, day 90) was 99.24% and the Potency/Purity ([2]; Stability Test B, day 121) was 98.70%. The Potency/Purity ([2]; Stability Test B, day 152) was 98.56% and the Potency/Purity ([2]; Stability Test B, day 180) was 100.44%.

With `Oc1ccc2c3c1O[C@H]1[C@H](O)CC[C@@]4(O)[C@@H](C2)N(CC2CC2)CC[C@]314` [6-beta-Naltrexol, 6-beta-naltrexol] the “Blood Level 6-beta-Naltrexol-free, Avg.” value ([3]; average of 8 subjects, 15 min) was 0.138 ng/mL, the “Blood Level 6-beta-Naltrexol-free, Avg.” value ([3]; average of 8 subjects, 30 min) was 0.900 ng/mL and the “Blood Level 6-beta-Naltrexol-free, Avg.” value ([3]; average of 8 subjects, 60 min) was 1.588 ng/mL. For the same molecule, the “Blood Level 6-beta-Naltrexol-free, Avg.” value ([3]; average of 8 subjects, 120 min) was 2.438 ng/mL, the “Blood Level 6-beta-Naltrexol-free” value ([3]; 15 min after intranasal 1 mL of Example 1 composition) was 0 ng/mL (7×) and 1.1 ng/mL and the “Blood Level 6-beta-Naltrexol-free” value ([3]; 30 min) was 0 ng/mL (3×) and 1 ng/mL (2×) and 1.5 ng/mL and 1.9 ng/mL and 1.8 ng/mL. For the same molecule, the “Blood Level 6-beta-Naltrexol-free” value ([3]; 60 min) was 1.1 ng/mL and 1.9 ng/mL and 0 ng/mL (2×) and 1.2 ng/mL and 1.6 ng/mL and 2.9 ng/mL and 4 ng/mL and the “Blood Level 6-beta-Naltrexol-free” value ([3]; 120 min) was 2.1 ng/mL (2×) and 2.7 ng/mL and 2 ng/mL and 1.8 ng/mL and 1 ng/mL and 3.5 ng/mL and 4.3 ng/mL.

`O=C1CC[C@@]2(O)[C@H]3Cc4ccc(O)c5c4[C@@]2(CCN3CC2CC2)[C@H]1O5` [Naltrexone, naltrexone] gave a concentration at 15 min ([3]; both sexes, human, in vivo, 2 mg, average of 8 subjects, 15 min after intranasal administration, read-out: Naltrexone-free blood level, Avg.) of 3.52 ng/mL, a concentration at 30 min ([3]; both sexes, human, in vivo, 2 mg, average of 8 subjects, 30 min, read-out: Naltrexone-free blood level, Avg.) of 3.66 ng/mL and a concentration at 60 min ([3]; both sexes, human, in vivo, 2 mg, average of 8 subjects, 60 min, read-out: Naltrexone-free blood level, Avg.) of 3.24 ng/mL. The concentration at 120 min ([3]; both sexes, human, in vivo, 2 mg, average of 8 subjects, 120 min, read-out: Naltrexone-free blood level, Avg.) was 1.94 ng/mL, the Naltrexone-free blood level ([3]; 15 min after intranasal 1 mL of Example 1 composition (2 mg/mL)) was 5.2 ng/mL and 1.4 ng/mL and 4.7 ng/mL and 4.6 ng/mL (2×) and 1.6 ng/mL and 2.1 ng/mL and 4 ng/mL and the Naltrexone-free blood level ([3]; 30 min after intranasal 1 mL of Example 1 composition) was 5.1 ng/mL and 1.7 ng/mL and 4.7 ng/mL and 3.8 ng/mL and 2.3 ng/mL and 5.5 ng/mL and 2.8 ng/mL and 3.4 ng/mL. The Naltrexone-free blood level ([3]; 60 min after intranasal 1 mL of Example 1 composition) was 4.6 ng/mL and 1.8 ng/mL (2×) and 4.5 ng/mL (2×) and 3.2 ng/mL and 2.6 ng/mL and 2.9 ng/mL, the Naltrexone-free blood level ([3]; 120 min after intranasal 1 mL of Example 1 composition) was 2.8 ng/mL and 1.1 ng/mL and 2.9 ng/mL and 2.1 ng/mL (2×) and 1.3 ng/mL and 1.4 ng/mL and 1.8 ng/mL and the “patients with improved global assessment” value [4] was 76%. The “reduction of fibromyalgia symptoms over placebo” value [5] was “greater than 30%”, the “CDAI scores, quality of life indicators, remission rates, inflammatory markers in serum” value [6] was “Statistically significant improvements” and the “analgesic effect compared with placebo” value [7] was “significant analgesic effects”. For the same molecule, the pain relief [8] was “improved pain relief”, the oral bioavailability ([9]; oral administration, significant first pass metabolism) was “up to 40%” and the “time to peak plasma concentration” value ([9]; single oral dose) was 1 to 2 h. For the same molecule, the “solubility in water (in words)” value ([1]; in the form of a salt) was “freely soluble”.
